What is called IC50 is the point on the concentration scale where inhibition reaches its midpoint. One may read the melting point as the temperature, or range, at which the solid turns liquid.

Among the data in patent US6544984B1, “2,3,4,5-tetrahydro-1H-(1,4)benzodiazepine-3-hydroxamic acids” (American Cyanamid Company, priority 1999, dated 2003) are IC50 and melting point values, retold here.

One series deals with T1, MMP-1 (Homo sapiens, UniProt P03956).
T1 construct: human recombinant fibroblast collagenase (truncated, mw=18,828)
T1 sequence (P03956 100-269 limits assumed): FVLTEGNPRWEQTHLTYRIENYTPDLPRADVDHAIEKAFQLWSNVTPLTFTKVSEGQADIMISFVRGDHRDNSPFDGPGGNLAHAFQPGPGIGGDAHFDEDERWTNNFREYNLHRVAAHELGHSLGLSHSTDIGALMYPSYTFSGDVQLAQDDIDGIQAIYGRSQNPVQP
Kind of series: In vitro collagenase assay (fluorogenic peptide substrate). In kind it is biochemical. The conditions noted are these: human recombinant fibroblast collagenase. An excerpt: In Vitro Collagenase Assay
This assay was based on the cleavage of a peptide substrate ((Dnp-Pro-Cha-Gly-Cys(Me)-His-Ala-Lys(NMa)-NH2), available from Peptide International, Inc.) by collagenase releasing the fluorescent NMa group which was quantitated on the fluorometer as disclosed in Bickett et al., “A High Throughput Fluorogenic Substrate for Interstitial Collagenase (MMP-1) and Gelatinase (MMP-9)”, Anal. Biochem., 212:58-64, (1993). Dnp quenches the NMa fluorescence in the intact substrate.
The assay was run in HCBC assay buffer (50 mM HEPES, pH 7.0, 5 mM Ca^+2, 0.02% Brij, 0.5% Cysteine), with human recombinant fibroblast collagenase (truncated, mw=18,828, from Wyeth-Ayerst Research, Radnor, Pa.). The substrate was dissolved in methanol and stored frozen in 1 mM aliquots. Collagenase was stored frozen in buffer in 25 μM aliquots. In conducting the assay, the substrate was dissolved in HCBC buffer to a final concentration of 10 μM and collagenase to a final concentration of 5 nM. The compounds being examined were dissolved in methanol, DMSO, or HCBC. The methanol and DMSO were diluted in HCBC to <1.0%. The compounds were added to a 96 well plate containing enzyme and the reaction was started by the addition of substrate.
The reaction was read (excitation 340 nm, emission 444 nm) for 10 min. and the increase in fluorescence over time was plotted as a linear line. The slope of the line was calculated representing the reaction rate. The linearity of the reaction rate was confirmed (r^2>0.85). The mean (x±sem) of the control rate was calculated and compared for statistical significance (p<0.05) with drug-treated rates using Dunnett's multiple comparison test.

The target in another series is T2, MMP-9 (Homo sapiens, UniProt P14780).
T2 construct: human neutrophil gelatinase B; from tissue; host or cells: human neutrophils
T2 sequence (P14780 94-707): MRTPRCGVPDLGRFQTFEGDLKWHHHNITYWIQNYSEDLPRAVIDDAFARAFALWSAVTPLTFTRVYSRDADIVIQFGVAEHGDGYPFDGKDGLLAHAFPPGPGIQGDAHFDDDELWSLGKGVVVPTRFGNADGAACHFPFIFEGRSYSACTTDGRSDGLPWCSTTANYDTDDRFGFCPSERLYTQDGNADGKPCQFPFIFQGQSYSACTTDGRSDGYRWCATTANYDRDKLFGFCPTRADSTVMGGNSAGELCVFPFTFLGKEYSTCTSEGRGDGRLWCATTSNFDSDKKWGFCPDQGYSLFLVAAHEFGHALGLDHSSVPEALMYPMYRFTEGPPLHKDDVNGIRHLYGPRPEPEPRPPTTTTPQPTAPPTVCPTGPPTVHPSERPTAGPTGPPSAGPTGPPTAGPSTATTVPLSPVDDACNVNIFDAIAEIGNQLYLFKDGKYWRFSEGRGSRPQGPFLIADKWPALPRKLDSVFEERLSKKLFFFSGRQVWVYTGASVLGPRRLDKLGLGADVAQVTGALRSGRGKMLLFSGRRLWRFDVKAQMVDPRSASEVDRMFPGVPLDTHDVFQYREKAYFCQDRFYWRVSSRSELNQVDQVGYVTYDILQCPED
The series is described as follows: In vitro gelatinase assay (thiopeptide substrate, DTNB). The format is biochemical. The conditions noted are these: human neutrophil gelatinase B. How it is done:
In Vitro Gelatinase Assay
The assay is based on the cleavage of the thiopeptide substrate ((Ac-Pro-Leu-Gly(2-mercapto-4-methyl-pentanoyl)-Leu-Gly-OEt), available from Bachem Bioscience) by the enzyme gelatinase, releasing the substrate product which reacts calorimetrically with DTNB ((5,5′-dithio-bis(2-nitro-benzoic acid)). This assay is disclosed in Weingarten et al., “Spectrophotometric Assay for Vertebrate Collegenase”, Anal. Biochem., 147:437-440, (1985). The enzyme activity is measured by the rate of the color increase.
The thiopeptide substrate was made up fresh as a 20 mM stock in 100% DMSO and the DTNB was dissolved in 100% DMSO as a 100 mM stock and stored in the dark at room temperature. The substrate and the DTNB were diluted together to 1 mM with substrate buffer (50 mM HEPES, pH 7.5, 5 mM CaCl2) before use. The stock of human neutrophil gelatinase B was diluted with assay buffer (50 mM HEPES, pH 7.5, 5 mM CaCl2, 0.02% Brij) to a final concentration of 0.15 nM.
The assay buffer, enzyme, DTNB/substrate (500 μM final concentration) and vehicle or inhibitor were added to a 96 well plate (total reaction volume of 200 μl) and the increase in color was monitored spectrophotometrically for 5 minutes at 405 nm on a plate reader.
The increase in OD405 was plotted and the slope of the line was calculated. The slope represents the reaction rate. The linearity of the reaction rate was confirmed (r^2>0.85) and the mean (x±sem) of the control rate was calculated and compared for statistical significance (p<0.05) with drug-treated rates using Dunnett's multiple comparison test.

In a further series the target is T3, TACE (Homo sapiens, UniProt P78536).
T3 construct: purchased Immunex
T3 sequence (P78536 215-824): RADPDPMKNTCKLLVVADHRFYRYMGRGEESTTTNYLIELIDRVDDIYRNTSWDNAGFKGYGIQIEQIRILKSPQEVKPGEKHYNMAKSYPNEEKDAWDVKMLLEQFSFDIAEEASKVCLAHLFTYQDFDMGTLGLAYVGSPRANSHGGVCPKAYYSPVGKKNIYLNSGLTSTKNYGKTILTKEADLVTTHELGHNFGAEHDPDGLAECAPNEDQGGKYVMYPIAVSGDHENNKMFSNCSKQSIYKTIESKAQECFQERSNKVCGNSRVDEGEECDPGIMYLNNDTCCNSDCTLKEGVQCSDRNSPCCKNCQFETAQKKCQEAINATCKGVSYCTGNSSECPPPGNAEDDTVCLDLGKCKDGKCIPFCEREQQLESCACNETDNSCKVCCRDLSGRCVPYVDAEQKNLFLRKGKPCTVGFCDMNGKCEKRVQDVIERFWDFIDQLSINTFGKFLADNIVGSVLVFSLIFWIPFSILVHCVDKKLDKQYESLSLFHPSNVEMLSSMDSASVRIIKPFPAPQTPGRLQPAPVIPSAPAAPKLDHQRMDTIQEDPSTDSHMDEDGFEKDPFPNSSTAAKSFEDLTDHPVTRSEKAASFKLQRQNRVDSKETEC
The series is described as follows: Procedure for measuring TACE inhibition (fluorescent peptidyl substrate). The format is biochemical. The procedure:
Procedure for Measuring TACE Inhibition
The plates were incubated for 10 minutes at room temperature. The reaction was initiated by addition of a fluorescent peptidyl substrate (final concentration 100 μM) to each well with shaking on a shaker for 5 sec.
The reaction was read (excitation 340 nm, emission 420 nm) for 10 min. and the increase in fluorescence over time was plotted as a linear line. The slope of the line was calculated and this represents the reaction rate. […] The mean (x±sem) of the control rate was calculated and compared for statistical significance (p<0.05) with drug-treated rates using Dunnett's multiple comparison test.

The target of another series is MMP-13 (Homo sapiens, UniProt P45452). The series is described as follows: MMP-13 inhibition. The format is biochemical.

Like-named read-outs stand apart in the source and are kept apart here.

As for `CC#CCOc1ccc(S(=O)(=O)N2Cc3ccccc3N(C(C)=O)CC2C(=O)NO)cc1` (centres unmarked) [Example 1, 1-Acetyl-4-(4-but-2-ynyloxbenzenesulfonyl)-2,3,4,5-tetrahydro-1H-[1,4]benzodiazepine-3-carboxylic acid, hydroxyamide], the IC50 at MMP-1 stood at 835 nM; on MMP-9, 228 nM; at TACE (read-out: IC50 (nM) TACE), 16 nM; on MMP-13 (read-out: IC50 (nM) MMP-13) it was 77 nM.
On the same counts, the results for `CC#CCOc1ccc(S(=O)(=O)N2Cc3ccccc3N(C(=O)c3cccs3)CC2C(=O)NO)cc1` (centres unmarked) [Example 2, 4-(4-But-2-ynyloxybenzenesulfonyl)-1-(2-thienylcarbonyl)-2,3,4,5-tetrahydro-1H-[1,4]benzodiazepine-3-carboxylic acid, hydroxyamide] are 250 nM, 24 nM, 38 nM and 8 nM.
With `CC#CCOc1ccc(S(=O)(=O)N2Cc3ccccc3N(C(=O)c3ccccc3)CC2C(=O)NO)cc1` (centres unmarked) [Example 3, 1-Benzoyl-4-(4-but-2-ynyloxybenzenesulfonyl)-2,3,4,5-tetrahydro-1H-[1,4]-benzodiazepine-3-carboxylic acid, hydroxyamide], the half-maximal inhibitory concentration (IC50) at MMP-13 (read-out: IC50 (nM) MMP-13) worked out at 10 nM.
On to `CC#CCOc1ccc(S(=O)(=O)N2Cc3ccccc3N(C(=O)c3ccco3)CC2C(=O)NO)cc1` (centres unmarked) [Example 57, 4-(4-But-2-ynyloxybenzenesulfonyl)-1-(2-furanylcarbonyl)-2,3,4,5-tetrahydro-1H-[1,4]benzodiazepine-3-carboxylic acid hydroxyamide], for which the melting point was in the range of 119 to 120 °C. Besides, the IC50 at MMP-1 came out at 125 nM. Further, at MMP-9, the IC50 came out at 2 nM. The compound further gave a 50% inhibitory concentration (IC50) against TACE of 33 nM. At MMP-13, the IC50 amounted to 7 nM.
On to `CC#CCOc1ccc(S(=O)(=O)N2Cc3ccccc3N(C(=O)C3CC3)CC2C(=O)NO)cc1` (centres unmarked) [Example 58, 1-Cyclopropylcarbonyl-4-(4-but-ynyloxybenzenesulfonyl)-2,3,4,5-tetrahydro-1H-[1,4]benzodiazepine-3-carboxylic acid, hydorxyamide], for which the IC50 at MMP-1 was 841 nM; against MMP-9, 33 nM; at MMP-13 (read-out: IC50 (nM) MMP-13), 29 nM.
